Bridge positions count the residues as written; N and C are the ends. Square brackets hold non-standard residues; d marks the D form. Peptide text beside a SMILES is read from it. * marks the point of attachment. ξ: configuration not given here. Bip = N[C@@H](Cc1ccc(-c2ccccc2)cc1)C(=O)O; Phe(3-Me) = Cc1cccc(C[C@H](N)C(=O)O)c1; Cha = N[C@@H](CC1CCCCC1)C(=O)O; Cit = NC(=O)NCCC[C@H](N)C(=O)O; Thr(3ξ) = CC(O)[C@H](N)C(=O)O; Carboxymethyl = O=C(O)C*; Orn = NCCC[C@H](N)C(=O)O; Aun = NCCCCCCCCCCC(=O)O; Dab = NCC[C@H](N)C(=O)O; Dap = NC[C@H](N)C(=O)O; AEEA = NCCOCCOCC(=O)O

For nine compounds, IC50 results are on record in patent US20260022142A1, “MACROCYCLIC IMMUNOMODULATORS” (Bristol-Myers Squibb Company, priority 2022, published 2026).

In the test the target is T1, PD-1/PD-L1 interaction (PE-labeled human PD-L1-Ig binding to Jurkat cell line over-expressing human PD-1) (Homo sapiens, UniProt Q15116).
T1 construct: expressed in transfected cells; host or cells: Jurkat
T1 sequence (Q15116 25-288): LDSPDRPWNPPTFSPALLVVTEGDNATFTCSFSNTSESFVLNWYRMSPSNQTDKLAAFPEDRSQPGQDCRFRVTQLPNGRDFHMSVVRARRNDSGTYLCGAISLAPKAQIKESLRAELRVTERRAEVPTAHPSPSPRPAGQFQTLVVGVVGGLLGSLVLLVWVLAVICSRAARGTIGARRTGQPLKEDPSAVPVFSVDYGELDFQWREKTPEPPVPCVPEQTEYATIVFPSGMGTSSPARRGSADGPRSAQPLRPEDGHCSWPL
Kind of test: Jurkat-PD-1 Cell Binding High-Content Screening Assay (CBA). It is filed as cell-based. The conditions noted are these: Jurkat cell line over-expressing human PD-1; PE-labeled PD-L1-Ig 20 nM final; read-out: Jurkat hPD1-PDL1 IC50. The method, boiled down: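 First, compound is added to PD-1-expressing Jurkat cells in serum-containing DMEM and left 2 h at 37° C. Next, PE-conjugated PD-L1-Ig is introduced at 20 nM final concentration for 1 hour. Finally, cells are fixed in 4% paraformaldehyde with Hoechst 33342, washed and imaged.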
Usually IC50 stands for the concentration that inhibits the measured activity by half. Consider `Cc1cccc(C[C@@H]2NC(=O)[C@H](CC(=O)O)NC(=O)[C@H](Cc3ccc(OCC(=O)O)cc3)NC(=O)[C@H](CN)NC(=O)CSC[C@@H](C(=O)N[C@@H](CCN)C(=O)NCCOCCOCC(=O)NCCCCCCCCCCC(=O)O)NC(=O)[C@H](C(C)O)NC(=O)[C@H](Cc3ccc(O)cc3)NC(=O)[C@H](CC3CCCCC3)NC(=O)[C@H](CCN)NC(=O)[C@@H](CC(C)C)NC(=O)[C@H](CCCN)NC(=O)[C@H](Cc3ccc(O)cc3)NC(=O)[C@H](Cc3ccc(-c4ccccc4)cc3)NC(=O)[C@H](Cc3ccc(O)cc3)NC2=O)c1` (stereo partly drawn) [Compound 2569] ({CH2CO}-[Dap]Y(Carboxymethyl)D[Phe(3-Me)]Y[Bip]Y[Orn][dL][Dab][Cha]Y[Thr(3ξ)]C[Dab][AEEA][Aun]-OH; thioether N-14), for which the IC50 was 80.2 nM. As for `Cc1cccc(C[C@@H]2NC(=O)[C@H](CC(=O)O)NC(=O)[C@H](Cc3ccc(OCC(=O)O)cc3)NC(=O)[C@H](CN)NC(=O)CSC[C@@H](C(=O)N[C@@H](CCN)C(=O)NCCOCCOCC(=O)NCCCCCCCCCCC(=O)O)NC(=O)[C@H](CO)NC(=O)[C@H](Cc3ccc(O)cc3)NC(=O)[C@H](CC3CCCCC3)NC(=O)[C@H](CCN)NC(=O)[C@@H](CC(C)C)NC(=O)[C@H](CCCN)NC(=O)[C@H](Cc3ccc(O)cc3)NC(=O)[C@H](Cc3ccc(-c4ccccc4)cc3)NC(=O)[C@H](Cc3ccc(O)cc3)NC2=O)c1` [Compound 2570] ({CH2CO}-[Dap]Y(Carboxymethyl)D[Phe(3-Me)]Y[Bip]Y[Orn][dL][Dab][Cha]YSC[Dab][AEEA][Aun]-OH; thioether N-14), the figure is 31.9 nM; as for `Cc1cccc(C[C@@H]2NC(=O)[C@H](CC(=O)O)NC(=O)[C@H](Cc3ccc(OCC(=O)O)cc3)NC(=O)[C@H](CN)NC(=O)CSC[C@@H](C(=O)N[C@@H](CCN)C(=O)NCCOCCOCC(=O)NCCCCCCCCCCC(=O)O)NC(=O)[C@H](C(C)O)NC(=O)[C@H](Cc3ccc(O)cc3)NC(=O)[C@H](CC3CCCCC3)NC(=O)[C@H](CCN)NC(=O)[C@@H](CC(C)C)NC(=O)[C@H](CCCN)NC(=O)[C@H](CCCNC(N)=O)NC(=O)[C@H](Cc3ccc(-c4ccccc4)cc3)NC(=O)[C@H](Cc3ccc(O)cc3)NC2=O)c1` (stereo partly drawn) [Compound 2571] ({CH2CO}-[Dap]Y(Carboxymethyl)D[Phe(3-Me)]Y[Bip][Cit][Orn][dL][Dab][Cha]Y[Thr(3ξ)]C[Dab][AEEA][Aun]-OH; thioether N-14), 13 nM; as for `Cc1cccc(C[C@@H]2NC(=O)[C@H](CC(=O)O)NC(=O)[C@H](Cc3ccc(OCC(=O)O)cc3)NC(=O)[C@H](CN)NC(=O)CSC[C@@H](C(=O)N[C@@H](CCN)C(=O)NCCOCCOCC(=O)NCCCCCCCCCCC(=O)O)NC(=O)[C@H](CCCN)NC(=O)[C@H](Cc3ccc(O)cc3)NC(=O)[C@H](CC3CCCCC3)NC(=O)[C@H](CCN)NC(=O)[C@@H](CC(C)C)NC(=O)[C@H](CCCN)NC(=O)[C@H](CCCNC(N)=O)NC(=O)[C@H](Cc3ccc(-c4ccccc4)cc3)NC(=O)[C@H](Cc3ccc(O)cc3)NC2=O)c1` [Compound 2572] ({CH2CO}-[Dap]Y(Carboxymethyl)D[Phe(3-Me)]Y[Bip][Cit][Orn][dL][Dab][Cha]Y[Orn]C[Dab][AEEA][Aun]-OH; thioether N-14), 21.6 nM. As for `Cc1cccc(C[C@@H]2NC(=O)[C@H](CC(=O)O)NC(=O)[C@H](Cc3ccc(OCC(=O)O)cc3)NC(=O)[C@H](CN)NC(=O)CSC[C@@H](C(=O)N[C@@H](CCN)C(=O)NCCOCCOCC(=O)NCCCCCCCCCCC(=O)O)NC(=O)[C@H](C(C)O)NC(=O)[C@H](Cc3ccc(O)cc3)NC(=O)[C@H](CC3CCCCC3)NC(=O)[C@H](CCN)NC(=O)[C@@H](CC(C)C)NC(=O)[C@H](CCCN)NC(=O)[C@H](C(C)C)NC(=O)[C@H](Cc3ccc(-c4ccccc4)cc3)NC(=O)[C@H](Cc3ccc(O)cc3)NC2=O)c1` (stereo partly drawn) [Compound 2573] ({CH2CO}-[Dap]Y(Carboxymethyl)D[Phe(3-Me)]Y[Bip]V[Orn][dL][Dab][Cha]Y[Thr(3ξ)]C[Dab][AEEA][Aun]-OH; thioether N-14), the figure is 47.6 nM. As for `Cc1cccc(C[C@@H]2NC(=O)[C@H](CC(=O)O)NC(=O)[C@H](Cc3ccc(OCC(=O)O)cc3)NC(=O)[C@H](CN)NC(=O)CSC[C@@H](C(=O)N[C@@H](CCN)C(=O)NCCOCCOCC(=O)NCCCCCCCCCCC(=O)O)NC(=O)[C@H](CCCN)NC(=O)[C@H](Cc3ccc(O)cc3)NC(=O)[C@H](CC3CCCCC3)NC(=O)[C@H](CCN)NC(=O)[C@@H](CC(C)C)NC(=O)[C@H](CCCN)NC(=O)[C@H](C(C)C)NC(=O)[C@H](Cc3ccc(-c4ccccc4)cc3)NC(=O)[C@H](Cc3ccc(O)cc3)NC2=O)c1` [Compound 2574] ({CH2CO}-[Dap]Y(Carboxymethyl)D[Phe(3-Me)]Y[Bip]V[Orn][dL][Dab][Cha]Y[Orn]C[Dab][AEEA][Aun]-OH; thioether N-14), the figure is 28.3 nM; as for `Cc1cccc(C[C@@H]2NC(=O)[C@H](CC(=O)O)NC(=O)[C@H](Cc3ccc(OCC(=O)O)cc3)NC(=O)[C@H](CN)NC(=O)CSC[C@@H](C(=O)N[C@@H](CCN)C(=O)NCCOCCOCC(=O)NCCCCCCCCCCC(=O)O)NC(=O)[C@H](C(C)O)NC(=O)[C@H](C(C)C)NC(=O)[C@H](CC3CCCCC3)NC(=O)[C@H](CCN)NC(=O)[C@@H](CC(C)C)NC(=O)[C@H](CCCN)NC(=O)[C@H](Cc3ccc(O)cc3)NC(=O)[C@H](Cc3ccc(-c4ccccc4)cc3)NC(=O)[C@H](Cc3ccc(O)cc3)NC2=O)c1` (stereo partly drawn) [Compound 2575] ({CH2CO}-[Dap]Y(Carboxymethyl)D[Phe(3-Me)]Y[Bip]Y[Orn][dL][Dab][Cha]V[Thr(3ξ)]C[Dab][AEEA][Aun]-OH; thioether N-14), 10.2 nM; as for `Cc1cccc(C[C@@H]2NC(=O)[C@H](CC(=O)O)NC(=O)[C@H](Cc3ccc(OCC(=O)O)cc3)NC(=O)[C@H](CN)NC(=O)CSC[C@@H](C(=O)N[C@@H](CCN)C(=O)NCCOCCOCC(=O)NCCCCCCCCCCC(=O)O)NC(=O)[C@H](CCCN)NC(=O)[C@H](C(C)C)NC(=O)[C@H](CC3CCCCC3)NC(=O)[C@H](CCN)NC(=O)[C@@H](CC(C)C)NC(=O)[C@H](CCCN)NC(=O)[C@H](Cc3ccc(O)cc3)NC(=O)[C@H](Cc3ccc(-c4ccccc4)cc3)NC(=O)[C@H](Cc3ccc(O)cc3)NC2=O)c1` [Compound 2576] ({CH2CO}-[Dap]Y(Carboxymethyl)D[Phe(3-Me)]Y[Bip]Y[Orn][dL][Dab][Cha]V[Orn]C[Dab][AEEA][Aun]-OH; thioether N-14), 10.4 nM. Turning to `Cc1cccc(C[C@@H]2NC(=O)[C@H](CC(=O)O)NC(=O)[C@H](Cc3ccc(OCC(=O)O)cc3)NC(=O)[C@H](CN)NC(=O)CSC[C@@H](C(=O)N[C@@H](CCN)C(=O)NCCOCCOCC(=O)NCCCCCCCCCCC(=O)O)NC(=O)[C@H](C(C)O)NC(=O)[C@H](Cc3ccc(O)cc3)NC(=O)[C@H](CC3CCCCC3)NC(=O)[C@H](CCN)NC(=O)[C@@H](CC(C)C)NC(=O)[C@H](CCCN)NC(=O)[C@H](Cc3ccc(O)cc3)NC(=O)[C@H](Cc3ccc(-c4ccccc4)cc3)NC(=O)[C@H](C(C)C)NC2=O)c1` (stereo partly drawn) [Compound 2577] ({CH2CO}-[Dap]Y(Carboxymethyl)D[Phe(3-Me)]V[Bip]Y[Orn][dL][Dab][Cha]Y[Thr(3ξ)]C[Dab][AEEA][Aun]-OH; thioether N-14), the IC50 stood at 34 nM.
